Source: patent US10064417B2, “Milk filtration devices and methods for filtering” (Janssen Pharmaceutica NV, priority 2015, dated 2018)
Read-outs that look alike come from different tables or passages of the source.

How the values were obtained:
[1] = cited from earlier work
[2] = cited from earlier work; remark: listed apart in the source
[3] = cited from earlier work; remark: listed apart in the source
orosomucoid = settings: human blood; cited from earlier work
[4] = cited from earlier work; remark: listed apart in the source
[5] = Fraction of ketamine in the neutral state at various pHs; format: physicochemical; settings: mother's milk, pH about 7.2-7.4, estimated from Table I

N[C@@H](Cc1c[nH]cn1)C(=O)O [Histidine]
pKa [1]: 9.1

N=C(N)NCCC[C@H](N)C(=O)O [Arginine]
Log P [2]: −1.7

CN[C@H]1CC[C@@H](c2ccc(Cl)c(Cl)c2)c2ccccc21 [Sertraline]
Log P [2]: 5.10
bound in mother's milk [3]: about 80%
bound to orosomucoid (orosomucoid): 95%

NCCS(=O)(=O)O [Taurine]
Log P [2]: −1.9
pKa [1]: 9.0
pKa ([1]; room temperature): about 9

O=C(O)[C@@H]1CCCN1 [Proline]
Log P [2]: −2.6

CNC1(c2ccccc2Cl)CCCCC1=O (stereo not shown) [Ketamine]
Fraction of neutral ketamine ([4]; pH 7.1): 28.0%
Fraction of neutral ketamine ([4]; pH 7.4): 44.3%
Fraction of neutral ketamine ([4]; pH 7.5): 50.0%
neutral fraction of ketamine in milk [5]: 30-40%

CNCCC(Oc1ccc(C(F)(F)F)cc1)c1ccccc1 (stereo not shown) [fluoxetine, reference compound]
pKa ([1]; room temperature): about 10.3

Cc1cc2nc3c(=O)[nH]c(=O)nc-3n(C[C@H](O)[C@H](O)[C@H](O)CO)c2cc1C [Riboflavin]
Log P [2]: −0.92

Cc1ncc(C[n+]2csc(CCO)c2C)c(N)n1 [Thiamine]
Log P [2]: −3.1
Log P ([2]; listed as thiamine): ~−3

NCCCC[C@H](N)C(=O)O [Lysine]
Log P [2]: −3.2

Cc1ncc(CO)c(CO)c1O [Pyridoxine]
pKa [1]: 8.7
